Results published in PubChem BioAssay (NCI).
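Tested at 5 concentrations; 48 h exposure; 96-well plates; endpoints linearly interpolated, else capped at highest concentration. GI50 = concentration required for 50% inhibition of growth. At the TGI there is no net growth.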

Columns and labels:
Experiment in all cases: NCI anticancer screen, dose series, 48 h
[1] = tested on: RPMI-8226 leukemia
[2] = tested on: M14 melanoma
[3] = tested on: SW-620 colon
[4] = tested on: CCRF-CEM leukemia
[5] = tested on: LOX IMVI melanoma
[6] = tested on: EKVX NSCLC
[7] = tested on: BT-549 breast
[8] = tested on: PC-3 prostate
[9] = tested on: MCF7 breast
[10] = tested on: SF-268 CNS

| Structure (SMILES) | GI50 [1] [µM] | TGI [1] [µM] | GI50 [2] [µM] | TGI [2] [µM] | GI50 [3] [µM] | TGI [3] [µM] | GI50 [4] [µM] | TGI [4] [µM] | GI50 [5] [µM] | TGI [5] [µM] | GI50 [6] [µM] | TGI [6] [µM] | GI50 [7] [µM] | TGI [7] [µM] | GI50 [8] [µM] | TGI [8] [µM] | GI50 [9] [µM] | TGI [9] [µM] | TGI [10] [µM] | GI50 [10] [µM] |
| --- | --- | --- | --- | --- | --- | --- | --- | --- | --- | --- | --- | --- | --- | --- | --- | --- | --- | --- | --- | --- |
| COc1ccc2c(c1OC)-c1c(c3ccc([N+](=O)[O-])cc3c(=O)n1CCCBr)C2=O | 25 | > 100 | 27.2 | > 100 | 5.59 | > 100 | 16.9 | 80.9 | 12.7 | 45.5 | > 100 | > 100 | 50.8 | > 100 | 18.1 | > 100 | 3.66 | 20.6 | – | – |
| O=[N+]([O-])c1nccn1CC(O)CN1CCCCC1 (stereo not drawn) | – | > 100 | – | > 100 | – | > 100 | – | > 100 | – | > 100 | – | > 100 | – | > 100 | – | > 100 | – | > 100 | > 100 | – |
| CNNC(=N\S(=O)(=O)c1cc(C)c(Cl)cc1SCc1ccccc1)/N=C/c1ccc([N+](=O)[O-])s1 | 0.422 | > 45.3 | 9.97 | > 78.5 | 30.9 | > 100 | > 100 | > 100 | > 77.2 | > 100 | > 29.6 | > 100 | > 100 | > 100 | > 100 | > 100 | 97.9 | > 100 | > 100 | > 100 |
| O=C(Nc1ccc(-n2ccc3c(NC(=O)c4ccccc4)ncnc32)cc1)c1cccc(C(F)(F)F)c1 | 1.6 | 33.3 | 2.85 | 17.6 | 1.05 | 18.8 | 0.346 | 25.2 | 0.218 | 5.83 | 6.38 | 22.7 | 9.57 | 30 | 3.3 | 34 | 1.39 | 18.5 | 24.5 | 1.16 |
| C=C/C(C)=C/C[C@]1(C)[C@H](C)[C@@H](OC(=O)CCC)[C@H](O)[C@@]23C(=C[C@H](OC)C[C@@H]12)[C@@H](OC(=O)CCC)O[C@H]3OC(C)=O | 0.341 | 1.65 | 0.881 | 2.55 | 0.333 | 1.21 | 0.382 | 1.66 | 1.22 | 2.56 | 0.987 | 2.61 | 1.11 | 2.75 | 0.511 | 2.31 | 1.16 | 2.91 | 3.25 | 1.58 |
| O=c1cc(-c2ccc(O)cc2)oc2cc(O[C@@H]3O[C@H](CO)[C@@H](O)[C@H](O)[C@H]3O)cc(O)c12 | – | > 100 | – | > 100 | – | > 100 | – | > 100 | – | > 100 | – | > 100 | – | > 100 | – | > 100 | – | > 100 | > 100 | – |
| C#CCNC(=S)N/N=C(\C)c1ccccn1 | 0.201 | 1.7 | 0.454 | 5.15 | 0.341 | > 100 | 0.0677 | > 100 | 0.588 | > 32 | 0.595 | > 100 | 0.618 | > 100 | 0.393 | > 100 | 0.0792 | > 100 | > 100 | 0.517 |
| CN(C)c1nc(=NCc2ccco2)ss1 | – | 36.3 | – | > 53.8 | – | 61.9 | – | 33.8 | – | 38.4 | – | 64.3 | – | 38.4 | – | 30.5 | – | 33.1 | 51.8 | – |
| COc1cc2ncnc(-n3ncc4cc(NC(=O)Nc5ccc(Cl)c(Cl)c5)ccc43)c2cc1OC | 2.11 | 7.52 | 1.65 | 3.58 | 2.26 | 4.76 | 4.01 | 42.3 | 1.97 | 3.76 | 3.06 | 9.84 | 1.97 | 4.17 | 1.55 | 3.24 | 1.85 | 4.56 | 7.32 | 2.44 |
| CCOc1ccc2c(c1)C(=O)c1c-2n(CCCBr)c(=O)c2cc([N+](=O)[O-])ccc12 | 30.7 | > 100 | 6.58 | > 100 | 4.63 | > 100 | 3.74 | > 100 | 5.38 | > 100 | 86.1 | > 100 | 28.8 | > 100 | > 100 | > 100 | 0.344 | 63.8 | > 100 | 5.1 |
